From PubChem BioAssay (NCI)
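Following 48 hours of exposure in 96-well plates, responses at five concentrations were used to interpolate endpoints linearly. Here, GI50 denotes the concentration required for 50% inhibition of growth. TGI is the concentration that stops growth completely.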

Key:
Assay in all cases: inhibition of tumour cell growth, NCI panel, 48 h
SK-OV-3 ovarian = tested on: SK-OV-3 ovarian
OVCAR-3 ovarian = tested on: OVCAR-3 ovarian
SW-620 colon = tested on: SW-620 colon
UACC-62 melanoma = tested on: UACC-62 melanoma
SK-MEL-5 melanoma = tested on: SK-MEL-5 melanoma
SF-268 CNS = tested on: SF-268 CNS
OVCAR-4 ovarian = tested on: OVCAR-4 ovarian
MALME-3M melanoma = tested on: MALME-3M melanoma
SK-MEL-28 melanoma = tested on: SK-MEL-28 melanoma
HT29 colon = tested on: HT29 colon

| SMILES | GI50 (SK-OV-3 ovarian) [µM] | TGI (SK-OV-3 ovarian) [µM] | GI50 (OVCAR-3 ovarian) [µM] | TGI (OVCAR-3 ovarian) [µM] | GI50 (SW-620 colon) [µM] | TGI (SW-620 colon) [µM] | GI50 (UACC-62 melanoma) [µM] | TGI (UACC-62 melanoma) [µM] | GI50 (SK-MEL-5 melanoma) [µM] | TGI (SK-MEL-5 melanoma) [µM] | GI50 (SF-268 CNS) [µM] | TGI (SF-268 CNS) [µM] | GI50 (OVCAR-4 ovarian) [µM] | TGI (OVCAR-4 ovarian) [µM] | GI50 (MALME-3M melanoma) [µM] | TGI (MALME-3M melanoma) [µM] | TGI (SK-MEL-28 melanoma) [µM] | TGI (HT29 colon) [µM] | GI50 (SK-MEL-28 melanoma) [µM] | GI50 (HT29 colon) [µM] |
| --- | --- | --- | --- | --- | --- | --- | --- | --- | --- | --- | --- | --- | --- | --- | --- | --- | --- | --- | --- | --- |
| CCCCCCCCCCCCCCCCN1CC2CCCCC2C1 (stereo unspecified) | 12.5 | 29.7 | 17.6 | 34.1 | 3.87 | 15 | 8.1 | 21.1 | 5.84 | 19.5 | 69.2 | > 100 | 11.9 | 25.9 | 16.9 | 35.3 | – | – | – | – |
| CCc1ccccc1NC(=O)C(=O)CC(=O)c1sc(Nc2ccccc2)nc1C | – | > 100 | – | > 100 | – | > 100 | – | > 100 | – | > 100 | – | > 100 | – | > 100 | – | > 100 | > 100 | > 100 | – | – |
| CN(C)CCNc1c2c(c(NCCN(C)C)c3[nH]ccc13)C(=O)c1ccccc1C2=O | 5.57 | 17.7 | 0.639 | 6.59 | 0.385 | 2.97 | 1.64 | 14.8 | 1.81 | 3.88 | 1.39 | 5.91 | 1.05 | 3.11 | 3.3 | 11.9 | 9.5 | – | 3.1 | 0.465 |
| COc1ccc(-c2c3c(N)nc(-c4ccncc4)nc3nc3c2c(C)nn3-c2ccccc2)cc1 | 5.25 | 54 | 3.89 | 16 | 4.36 | > 100 | 4.87 | 51.9 | 6.79 | > 100 | 7.93 | > 100 | 3.41 | 30.8 | 14.5 | > 100 | 40.5 | 16 | 4.25 | 3.57 |
| O=C1/C(=C\c2c[nH]c3ccccc23)c2ccccc2N1c1c(Cl)cccc1Cl | 2.13 | 5.27 | 1.83 | 3.78 | 1.9 | 3.56 | 1.33 | 2.64 | 1.55 | 2.92 | 1.6 | 3.59 | 2.33 | 6.44 | – | – | 3.8 | 3.4 | 2.14 | 1.85 |
| Cc1cc(N(CCC#N)CCC#N)ccc1N=Nc1cccc(C(=O)O)c1 | – | > 100 | – | > 100 | – | > 100 | – | > 100 | – | > 100 | – | > 100 | – | > 100 | – | > 100 | > 100 | > 100 | – | – |
| COc1ccc(-c2n/c(=C\c3c(O)[nH]c4ccc(OC)cc34)cc3c2=Nc2ccccc2-3)cc1 | 22.5 | 46.6 | – | – | 2.4 | 6.9 | – | – | 1.53 | 2.91 | – | – | – | – | – | – | 3.32 | – | 1.9 | – |
| O=c1/c(=C/c2ccccc2F)sc2nc3ccccc3n12 | – | – | – | > 100 | – | > 100 | – | > 100 | – | > 100 | – | > 100 | – | > 100 | – | > 100 | > 100 | > 100 | – | – |
| COc1ccc(-c2nc3sc4c(c3c(=O)[nH]2)CCCCCC4)cc1 | 1.6 | > 33.2 | 1.91 | > 33.2 | 1.81 | > 33.2 | 0.908 | > 33.2 | 2.52 | > 33.2 | 13.9 | > 33.2 | – | – | 3.72 | > 33.2 | > 33.2 | – | 6.67 | – |
| CCCC(C)c1cc(Cc2cc(Cl)cc(Cl)c2O)c(O)c(Cc2cc(Cl)cc(Cl)c2O)c1 (stereo unspecified) | 3.36 | 9.23 | 1.71 | 12.7 | 1.61 | 12.7 | 0.629 | 4.2 | 0.428 | 2.21 | 1.01 | 20.7 | 2.02 | 13.7 | 1.77 | 6.75 | 10.1 | 11.2 | 1.19 | 2.83 |
| COc1ccc(-c2csc(N(C(=O)N3CCN(c4cc5c(cc4F)c(=O)c(C(=O)O)cn5C4CC4)CC3)c3ccccc3)n2)cc1 | 2.49 | 7.83 | – | – | 4.37 | > 100 | 2.24 | 8.91 | 2.86 | 8.39 | 3.2 | > 100 | 1.56 | > 100 | 2.64 | 7.54 | > 100 | 46.2 | 5.17 | 3.62 |
| CCCCCCCCCCC(C(=O)O)C1(C(=O)O)CCC(=O)O1 (stereo unspecified) | – | > 100 | – | > 100 | – | > 100 | – | > 100 | – | – | – | > 100 | – | > 100 | – | – | > 100 | > 100 | – | – |
| CN1CCC(n2cnc(-c3ccc(F)cc3)c2-c2ccnc(NCCO)n2)CC1 | > 25 | > 25 | > 23.4 | > 25 | 15.8 | > 25 | > 21.6 | > 25 | 17.2 | > 25 | 18.2 | > 25 | > 20.9 | > 25 | 23.8 | > 25 | > 25 | > 25 | > 25 | 10 |
| COc1cc(/C=C/c2cc(O)c3cc(C(C)=O)c(=O)oc3c2)cc2c1O[C@]1(C)CC[C@@H](O)C(C)(C)[C@H]1C2 | > 20.6 | > 64 | > 33.1 | > 89.1 | – | > 34.7 | – | > 27.8 | – | – | > 21.4 | > 56.4 | > 43 | > 74.3 | – | > 33 | > 21.4 | > 62.2 | – | > 24.9 |
| CCCC(=O)OC1C(C(O)CO)OC2OC(C)(C)OC21 (stereo unspecified) | – | > 100 | – | > 100 | – | > 100 | – | > 100 | – | > 100 | – | > 100 | – | > 100 | – | > 100 | > 100 | > 100 | – | – |
